Experimental data as given in article PMC4537502 (Psychopharmacology, 2015).

How the values were obtained:
[1] = Biodistribution of ^11C-SA4503-derived radioactivity; format: in vivo; conditions: rat, 80 min after injection, mean ± SEM
[2] = plasma radioactivity and metabolite analysis after ^11C-SA4503 injection; format: in vivo; conditions: rat, 60 min, saline-treated
Protocol: From these samples, 25 μl of whole blood was collected and plasma (25 μl) was then obtained by centrifugation of the remaining sample (5 min at 13,000×g). Radioactivity in plasma and whole blood was determined using a calibrated gamma counter (CompuGamma CS1282, LKB-Wallac, Turku, Finland).

[3] = molecular target: dopamine D2 receptor (D2R) (Rattus norvegicus, UniProt P61169); assay: in vivo; conditions: rat, baseline, mean ± S.D.
Protocol: Because of limited availability of the test drug, the 60 mg/kg dose group was scanned only with ^11C-raclopride.
After drug administration and about 20 min before each microPET scan, animals were anesthetized with isoflurane (Pharmachemie BV, Haarlem, Netherlands). […] Both tracers were injected as a slow bolus (1 ml of saline-diluted tracer solution infused during a period of 1 min), using a Harvard-style injection pump.
Two rats were scanned in each scan session. They were positioned on heating mats in a microPET Focus 220 system, in transaxial position above each other with their brains in the field of view. Body temperature of the animals was kept close to normal with electronic temperature controllers. Heart rate and oxygen level of the blood during the scan were monitored using pulse oximeters (PulseSense, Nonin). […] A list mode protocol was used with a 76-min acquisition time.
Image reconstruction was performed using microPET Manager 2.3.3.6 (Siemens). The PET data were split according to position along the y-axis, so that a separate data set was acquired for each animal. The list mode data of the emission scans were reframed in a dynamic sequence of 6 × 10, 4 × 30, 2 × 60, 1 × 120, 1 × 180, 4 × 300, and 3 × 600 s (with an additional 960-s frame for the rat that was injected first). The data were reconstructed per time frame employing an iterative reconstruction algorithm (OSEM2D with Fourier rebinning, 4 iterations, and 16 subsets). […] Data sets were corrected for decay, random coincidences, scatter, and attenuation.
In ^11C-raclopride scans of the brain, three-dimensional regions of interest (ROIs) were manually drawn over the left and right striatum and cerebellum, using the program ASIPro 6.3.3.0 (Siemens). […] Time-activity curves (TACs) were generated for these regions (Fig. 1). The results are expressed as dimensionless standardized uptake values (PET-SUV), defined as [(tissue activity concentration (MBq/g) × body weight (g) / injected dose (MBq)]. Brain tissue was assumed to have a specific gravity of 1 g/ml.
Plateau values for the striatum-to-cerebellum ratio were derived from this curve fit.

dopamine D2 receptor (D2R), sequence (P61169 whole entry): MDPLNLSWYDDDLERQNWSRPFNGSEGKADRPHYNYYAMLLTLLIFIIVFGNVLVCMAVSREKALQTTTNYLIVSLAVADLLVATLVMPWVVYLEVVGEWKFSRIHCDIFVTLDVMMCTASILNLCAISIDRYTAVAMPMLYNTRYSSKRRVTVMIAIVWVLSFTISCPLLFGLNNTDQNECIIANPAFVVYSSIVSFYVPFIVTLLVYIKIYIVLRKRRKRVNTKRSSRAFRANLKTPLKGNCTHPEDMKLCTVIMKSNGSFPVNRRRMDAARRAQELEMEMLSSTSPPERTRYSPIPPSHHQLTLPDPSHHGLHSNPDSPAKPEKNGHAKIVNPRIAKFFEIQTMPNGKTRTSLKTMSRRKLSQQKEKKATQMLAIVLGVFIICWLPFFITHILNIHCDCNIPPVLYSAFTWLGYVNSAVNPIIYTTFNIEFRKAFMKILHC

Compound: COc1ccc(CCN2CCN(CCCc3ccccc3)CC2)cc1OC [^11C-SA4503, 1-[2-(3,4-dimethoxyphenethyl)]-4-(3-phenylpropyl)piperazine]
- Uptake of radioactivity (SUV values), Adipose tissue ([1]; 3 mg/kg pridopidine): 0.27 ± 0.06 SUV
- Uptake of radioactivity (SUV values), Adrenal gland ([1]; 3 mg/kg pridopidine): 23.0 ± 4.1 SUV
- Uptake of radioactivity (SUV values), Bladder ([1]; 3 mg/kg pridopidine): 0.88 ± 0.38 SUV
- Uptake of radioactivity (SUV values), Bone ([1]; 3 mg/kg pridopidine): 0.26 ± 0.03 SUV
- Uptake of radioactivity (SUV values), Bone marrow ([1]; 3 mg/kg pridopidine): 2.62 ± 0.67 SUV
- Uptake of radioactivity (SUV values), Cerebellum ([1]; 3 mg/kg pridopidine): 0.76 ± 0.17 SUV
- Uptake of radioactivity (SUV values), Cerebral cortex ([1]; 3 mg/kg pridopidine): 1.17 ± 0.17 SUV
- Uptake of radioactivity (SUV values), Heart ([1]; 3 mg/kg pridopidine): 0.23 ± 0.01 SUV
- Uptake of radioactivity (SUV values), Intestine (large) ([1]; 3 mg/kg pridopidine): 1.21 ± 0.12 SUV
- Uptake of radioactivity (SUV values), Intestine (small) ([1]; 3 mg/kg pridopidine): 1.93 ± 0.40 SUV
- Uptake of radioactivity (SUV values), Kidney ([1]; 3 mg/kg pridopidine): 2.10 ± 0.09 SUV
- Uptake of radioactivity (SUV values), Liver ([1]; 3 mg/kg pridopidine): 7.71 ± 0.89 SUV
- Uptake of radioactivity (SUV values), Lung ([1]; 3 mg/kg pridopidine): 1.05 ± 0.06 SUV
- Uptake of radioactivity (SUV values), Muscle ([1]; 3 mg/kg pridopidine): 0.13 ± 0.01 SUV
- Uptake of radioactivity (SUV values), Pancreas ([1]; 3 mg/kg pridopidine): 5.02 ± 0.64 SUV
- Uptake of radioactivity (SUV values), Pituitary ([1]; 3 mg/kg pridopidine): 2.13 ± 0.44 SUV
- Uptake of radioactivity (SUV values), Plasma ([1]; 3 mg/kg pridopidine): 0.14 ± 0.02 SUV
- Uptake of radioactivity (SUV values), Red blood cells ([1]; 3 mg/kg pridopidine): 0.07 ± 0.01 SUV
- Uptake of radioactivity (SUV values), Rest brain ([1]; 3 mg/kg pridopidine): 1.10 ± 0.05 SUV
- Uptake of radioactivity (SUV values), Spleen ([1]; 3 mg/kg pridopidine): 2.03 ± 0.12 SUV
- Uptake of radioactivity (SUV values), Submandibular gland ([1]; 3 mg/kg pridopidine): 4.48 ± 0.64 SUV
- Uptake of radioactivity (SUV values), Urine ([1]; 3 mg/kg pridopidine): 1.60 ± 0.87 SUV
- Uptake of radioactivity (SUV values), Adipose tissue ([1]; 15 mg/kg pridopidine): 0.36 ± 0.04 SUV
- Uptake of radioactivity (SUV values), Adrenal gland ([1]; 15 mg/kg pridopidine): 10.7 ± 4.1 SUV
- Uptake of radioactivity (SUV values), Bladder ([1]; 15 mg/kg pridopidine): 0.83 ± 0.22 SUV
- Uptake of radioactivity (SUV values), Bone ([1]; 15 mg/kg pridopidine): 0.44 ± 0.05 SUV
- Uptake of radioactivity (SUV values), Bone marrow ([1]; 15 mg/kg pridopidine): 2.20 ± 0.77 SUV
- Uptake of radioactivity (SUV values), Cerebellum ([1]; 15 mg/kg pridopidine): 0.73 ± 0.03 SUV
- Uptake of radioactivity (SUV values), Cerebral cortex ([1]; 15 mg/kg pridopidine): 0.87 ± 0.05 SUV
- Uptake of radioactivity (SUV values), Heart ([1]; 15 mg/kg pridopidine): 0.38 ± 0.02 SUV
- Uptake of radioactivity (SUV values), Intestine (large) ([1]; 15 mg/kg pridopidine): 0.74 ± 0.08 SUV
- Uptake of radioactivity (SUV values), Intestine (small) ([1]; 15 mg/kg pridopidine): 1.70 ± 0.15 SUV
- Uptake of radioactivity (SUV values), Kidney ([1]; 15 mg/kg pridopidine): 2.07 ± 0.15 SUV
- Uptake of radioactivity (SUV values), Liver ([1]; 15 mg/kg pridopidine): 7.21 ± 0.83 SUV
- Uptake of radioactivity (SUV values), Lung ([1]; 15 mg/kg pridopidine): 1.47 ± 0.04 SUV
- Uptake of radioactivity (SUV values), Muscle ([1]; 15 mg/kg pridopidine): 0.22 ± 0.02 SUV
- Uptake of radioactivity (SUV values), Pancreas ([1]; 15 mg/kg pridopidine): 6.23 ± 0.53 SUV
- Uptake of radioactivity (SUV values), Pituitary ([1]; 15 mg/kg pridopidine): 2.75 ± 0.72 SUV
- Uptake of radioactivity (SUV values), Plasma ([1]; 15 mg/kg pridopidine): 0.28 ± 0.02 SUV
- Uptake of radioactivity (SUV values), Red blood cells ([1]; 15 mg/kg pridopidine): 0.16 ± 0.01 SUV
- Uptake of radioactivity (SUV values), Rest brain ([1]; 15 mg/kg pridopidine): 0.65 ± 0.03 SUV
- Uptake of radioactivity (SUV values), Spleen ([1]; 15 mg/kg pridopidine): 1.99 ± 0.07 SUV
- Uptake of radioactivity (SUV values), Submandibular gland ([1]; 15 mg/kg pridopidine): 5.77 ± 0.39 SUV
- Uptake of radioactivity (SUV values), Urine ([1]; 15 mg/kg pridopidine): 0.50 ± 0.09 SUV
- Uptake of radioactivity (SUV values), Adipose tissue ([1]; Baseline): 0.26 ± 0.05 SUV
- Uptake of radioactivity (SUV values), Adrenal gland ([1]; Baseline): 25.7 ± 3.6 SUV
- Uptake of radioactivity (SUV values), Bladder ([1]; Baseline): 0.70 ± 0.10 SUV
- Uptake of radioactivity (SUV values), Bone ([1]; Baseline): 0.44 ± 0.14 SUV
- Uptake of radioactivity (SUV values), Bone marrow ([1]; Baseline): 2.57 ± 0.47 SUV
- Uptake of radioactivity (SUV values), Cerebellum ([1]; Baseline): 1.95 ± 0.12 SUV
- Uptake of radioactivity (SUV values), Cerebral cortex ([1]; Baseline): 1.97 ± 0.15 SUV
- Uptake of radioactivity (SUV values), Heart ([1]; Baseline): 0.33 ± 0.04 SUV
- Uptake of radioactivity (SUV values), Intestine (large) ([1]; Baseline): 1.72 ± 0.13 SUV
- Uptake of radioactivity (SUV values), Intestine (small) ([1]; Baseline): 2.33 ± 0.28 SUV
- Uptake of radioactivity (SUV values), Kidney ([1]; Baseline): 4.19 ± 0.20 SUV
- Uptake of radioactivity (SUV values), Liver ([1]; Baseline): 6.47 ± 0.63 SUV
- Uptake of radioactivity (SUV values), Lung ([1]; Baseline): 1.98 ± 0.18 SUV
- Uptake of radioactivity (SUV values), Muscle ([1]; Baseline): 0.15 ± 0.02 SUV
- Uptake of radioactivity (SUV values), Pancreas ([1]; Baseline): 4.95 ± 0.74 SUV
- Uptake of radioactivity (SUV values), Pituitary ([1]; Baseline): 3.24 ± 0.03 SUV
- Uptake of radioactivity (SUV values), Plasma ([1]; Baseline): 0.11 ± 0.02 SUV
- Uptake of radioactivity (SUV values), Red blood cells ([1]; Baseline): 0.10 ± 0.03 SUV
- Uptake of radioactivity (SUV values), Rest brain ([1]; Baseline): 2.23 ± 0.31 SUV
- Uptake of radioactivity (SUV values), Spleen ([1]; Baseline): 2.62 ± 0.27 SUV
- Uptake of radioactivity (SUV values), Submandibular gland ([1]; Baseline): 3.60 ± 0.18 SUV
- Uptake of radioactivity (SUV values), Urine ([1]; Baseline): 0.35 ± 0.16 SUV
- parent tracer (^11C-SA4503) remaining unchanged in plasma [2]: 55%

Compound: CCN1CCC[C@H]1CNC(=O)c1c(O)c(Cl)cc(Cl)c1O[11CH3] (racemic) [^11C-raclopride]
- Target binding of the radioligand (striatum-to-cerebellum ratio at plateau minus one) [3]: 2.85 ± 0.48
